Laboratory results: patent publication US9580432B2, “Fused pyrimidine compound or salt thereof” (TAIHO PHARMACEUTICAL CO., LTD., priority 2013, dated 2017)

Tests used:
[1] = Influence on body weight of SD rat by repeated administration (in vivo); settings: 280 mg/kg orally once a day, two weeks
Method: The rats were grouped as follows, with four animals in each group, by a random classification method such that the average body weights of the each groups would be almost uniform (Day 1).
The body weight change (BWC) was used as an index indicating the systemic toxicity caused by drug administration. The BWC was calculated by the following formula. BWC (%)=([(Rat body weight on 14 days after the administration)−(rat body weight at the time of grouping)]/(rat body weight at the time of grouping))×100
The relative body weight change ratios in the each compound-administered groups were calculated by the following formula when the BWC in the vehicle-administered group was set as 1, and the results are indicated in Table 52. Relative body weight change ratio (%)=(BWC in the compound-administered group)/(BWC in the vehicle-administered group)×100

[2] = target: purified recombinant human BTK protein (Homo sapiens (Human), UniProt Q06187); test: Measurement of BTK inhibitory activity (in vitro); assay type: biochemical; settings: FL-PEPTIDE 2 substrate 1 μM, ATP 45 μM, 40 minutes at 25° C.
How it was run: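 Recombinant human BTK with FL-PEPTIDE 2 substrate (1 μM), 45 μM ATP and 10 mM MgCl2 in 20 mM HEPES pH 7.5, 2 mM DTT, 0.01% Triton X-100, 5% DMSO; 40 min at 25° C. Reaction stopped with 30 mM EDTA. Phosphorylated and unphosphorylated peptide separated and detected by microchannel capillary electrophoresis.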

[3] = tested on: purified recombinant human EGFR protein / BTK; test: BTK inhibition selectivity compared with EGFR kinase inhibitory activity (in vitro); assay type: biochemical; settings: EGFR assay ATP 1.5 μM
Method: 1) Measurement of BTK Inhibitory Activity
2) Measurement of EGFR Inhibitory Activity
Therefore, a biotinated peptide (biotin-[…]) was produced by referring to the amino acid sequence of the peptide. The purified recombinant human EGFR protein used in the test was purchased from Carna Biosciences, Inc.
With regard to the measurement of the inhibitory activity of the compounds, firstly, the compounds of the present invention were diluted stepwise with dimethyl sulfoxide (DMSO). […] The reaction was terminated by adding EDTA thereto in order to obtain a final concentration of 24 mM. Subsequently, a detection liquid containing Eu-labeled anti-phosphorylated tyrosine antibody PT66 (PerkinElmer, Inc.) and […] APC-SA (PerkinElmer, Inc.) was added thereto, and the system was left to stand for 2 hours or longer at room temperature.
3) BTK Inhibition Selectivity

A431 cells / TMD8 cells = test: Proliferation inhibitory activity against cell lines expressing BTK and EGFR (in vitro), comparison of selectivity; assay type: cell-based, human; settings: ratio from GI50 (nM), 3 days culture, CELLTITER GLO
How it was run: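 BTK-expressing TMD8 DLBCL cells (RPMI1640/10% FBS) and EGFR-overexpressing A431 epidermoid carcinoma cells (DMEM/10% FBS) cultured 1 day, then exposed to compound (0.2% DMSO final) for 3 days at 37° C. Luminescence read-out; inhibition ratio % = (C−T)/(C−C0)×100, with A431/TMD8 ratio as selectivity index.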

Chain of purified recombinant human BTK protein (Q06187 whole entry): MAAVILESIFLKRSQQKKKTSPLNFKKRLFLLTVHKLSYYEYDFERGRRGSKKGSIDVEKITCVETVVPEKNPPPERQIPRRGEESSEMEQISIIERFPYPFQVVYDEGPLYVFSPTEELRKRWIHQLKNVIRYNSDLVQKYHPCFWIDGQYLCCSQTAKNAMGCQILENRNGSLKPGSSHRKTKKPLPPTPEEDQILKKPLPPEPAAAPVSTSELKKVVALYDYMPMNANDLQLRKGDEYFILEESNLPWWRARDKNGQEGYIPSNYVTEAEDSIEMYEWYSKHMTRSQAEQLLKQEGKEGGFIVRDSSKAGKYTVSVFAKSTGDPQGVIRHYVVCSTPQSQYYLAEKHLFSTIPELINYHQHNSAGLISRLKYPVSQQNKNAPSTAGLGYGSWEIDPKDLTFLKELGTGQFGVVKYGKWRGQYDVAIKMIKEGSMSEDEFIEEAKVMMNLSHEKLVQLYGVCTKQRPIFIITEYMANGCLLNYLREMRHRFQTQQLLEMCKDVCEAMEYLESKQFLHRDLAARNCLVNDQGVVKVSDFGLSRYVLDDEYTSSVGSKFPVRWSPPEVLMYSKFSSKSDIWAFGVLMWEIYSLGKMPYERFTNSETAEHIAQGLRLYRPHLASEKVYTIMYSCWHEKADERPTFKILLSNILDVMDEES

Compound	individuals suffering from loose bowel [1]	width of rat body weight increase compared with the vehicle-administered group [1]	IC50 [2] [nM]	EGFR inhibitory activity IC50 value (nM)/BTK inhibitory activity IC50 value (nM) [3]	A431 cell proliferation inhibition ratio/TMD8 cell proliferation inhibitio ratio (A431 cells / TMD8 cells)
C=CC(=O)N1CCC[C@@H](n2nc(-c3ccc(Oc4ccccc4)cc3)c3c(N)ncnc32)C1 [Comparative Example Compound 1, (R)-1-(3-(4-amino-3-(4-phenoxyphenyl)-1H-pyrazolo[3,4-d]pyrimidin-1-yl)piperidin-1-yl)prop-2-en-1-one, reference compound]	individuals suffering from loose bowel were recognized	very small			
CC(C)N(C)C/C=C/C(=O)N1CCC[C@@H](n2nc(C(=O)Nc3nc4cc(Cl)ccc4o3)c3c(N)ncnc32)C1 [Example 18, (R,E)-4-amino-N-(5-chlorobenzo[d]oxazol-2-yl)-1-(1-(4-(isopropyl(methyl)amino)but-2-enoyl)piperidin-3-yl)-1H-pyrazolo[3,4-d]pyrimidine-3-carboxamide]			0.788	121.3	>15625.0
CCN(C)C/C=C/C(=O)N1CC[C@@H](n2cc(C(=O)Nc3nc4cc(Cl)ccc4o3)c3c(N)ncnc32)C1 [Example 50, (R,E)-4-amino-N-(5-chlorobenzo[d]oxazol-2-yl)-7-(1-(4-(ethyl(methyl)amino)but-2-enoyl)pyrrolidin-3-yl) 7H-pyrrolo[2,3-d]pyrimidine-5-carboxamide]			1.41	22.1	>2767.8
Nc1ncnc2c1c(C(=O)Nc1nc3cc(Cl)ccc3o1)nn2[C@@H]1CCCN(C(=O)/C=C/CN2CCCC2)C1 [Example 19, (R,E)-4-amino-N-(5-chlorobenzo[d]oxazol-2-yl)-1-(1-(4-(pyrrolidin-1-yl)but-2-enoyl)piperidin-3-yl)-1H-pyrazolo[3,4-d]pyrimidine-3-carboxamide]			0.69	144.8	>17825.3
C=CC(=O)N1CC[C@@H](n2nc(C(=O)Nc3nc4cc(CCOC)ccc4o3)c3c(N)ncnc32)C1 [Example 40, (R)-1-(1-acryloylpyrrolidin-3-yl)-4-amino-N-(5-(2-methoxyethyl)benzo[d]oxazol-2-yl)-1H-pyrazolo[3,4-d]pyrimidine-3-carboxamide]			2.09	10.0	>3159.6
CN(C)C/C=C/C(=O)N1CC[C@@H](n2nc(C(=O)Nc3nc4cc(C(F)(F)F)ccc4o3)c3c(N)ncnc32)C1 [Example 44, (R,E)-4-amino-N-(5-(trifluoromethyl)benzo[d]oxazol-2-yl)-1-(1-(4-(dimethylamino)but-2-enoyl)pyrrolidin-3-yl)-1H-pyrazolo[3,4-d]pyrimidine-3-carboxamide]			0.877	17.1	10905.1
Nc1ncnc2c1c(C(=O)Nc1nc3cc(Cl)ccc3o1)cn2[C@@H]1CCN(C(=O)/C=C/CN2CCCC2)C1 [Example 53, (R,E)-4-amino-N-(5-chlorobenzo[d]oxazol-2-yl)-7-(1-(4-(pyrrolidin-1-yl)but-2-enoyl)pyrrolidin-3-yl) 7H-pyrrolo[2,3-d]pyrimidine-5-carboxamide]			1.68	25.5	>1535.4
C=CC(=O)N[C@H]1CC[C@H](n2nc(C(=O)Nc3nc4ccccc4o3)c3c(N)ncnc32)CC1 [Example 72, 1-((1R,4R)-4-acrylamidocyclohexyl)-4-amino-N-(benzo[d]oxazol-2-yl)-1H-pyrazolo[3,4-d]pyrimidine-3-carboxamide]			28.1	12.4	>2802.7
C=CC(=O)N1CCC(Cn2nc(C(=O)Nc3nc4ccccc4o3)c3c(N)ncnc32)CC1 [Example 68, 1-((1-acryloylpiperidin-4-yl)methyl)-4-amino-N-(benzo[d]oxazol-2-yl)-1H-pyrazolo[3,4-d]pyrimidine-3-carboxamide]			13.2	11.4	>4785.8
CCN(C)C/C=C/C(=O)N1CCC[C@@H](n2nc(C(=O)Nc3nc4cc(Cl)ccc4o3)c3c(N)ncnc32)C1 [Example 16, (R,E)-4-amino-N-(5-chlorobenzo[d]oxazol-2-yl)-1-(1-(4-(ethyl(methyl)amino)but-2-enoyl)piperidin-3-yl)-1H-pyrazolo[3,4-d]pyrimidine-3-carboxamide]			0.733	158.1	>16313.2
Nc1ncnc2c1c(C(=O)Nc1nc3cc(Cl)ccc3o1)nn2[C@@H]1CCCN(C(=O)/C=C/CN2CCCCC2)C1 [Example 20, (R,E)-4-amino-N-(5-chlorobenzo[d]oxazol-2-yl)-1-(1-(4-(piperidin-1-yl)but-2-enoyl)piperidin-3-yl)-1H-pyrazolo[3,4-d]pyrimidine-3-carboxamide]			0.801	138.2	>19120.5
C=CC(=O)N1CC[C@@H](n2nc(C(=O)Nc3nc4cc(F)ccc4o3)c3c(N)ncnc32)C1 [Example 30, (R)-1-(1-acryloylpyrrolidin-3-yl)-4-amino-N-(5-fluorobenzo[d]oxazol-2-yl)-1H-pyrazolo[3,4-d]pyrimidine-3-carboxamide]			0.566	21.3	5164.3
C=CC(=O)N[C@H]1CC[C@@H](n2nc(C(=O)Nc3nc4ccccc4o3)c3c(N)ncnc32)CC1 [Example 71, 1-((1S,4S)-4-acrylamidocyclohexyl)-4-amino-N-(benzo[d]oxazol-2-yl)-1H-pyrazolo[3,4-d]pyrimidine-3-carboxamide]			5.89	42.0	>7657.0
CN(C)C/C=C/C(=O)N1CC[C@@H](n2cc(C(=O)Nc3nc4cc(Cl)ccc4o3)c3c(N)ncnc32)C1 [Example 49, (R,E)-4-amino-N-(5-chlorobenzo[d]oxazol-2-yl)-7-(1-(4-(dimethylamino)but-2-enoyl)pyrrolidin-3-yl) 7H-pyrrolo[2,3-d]pyrimidine-5-carboxamide]			1.53	24.8	>3260.5
Nc1ncnc2c1c(C(=O)Nc1nc3cc(Cl)ccc3o1)cn2[C@@H]1CCN(C(=O)/C=C/CN2CCCCC2)C1 [Example 54, (R,E)-4-amino-N-(5-chlorobenzo[d]oxazol-2-yl)-7-(1-(4-(piperidin-1-yl)but-2-enoyl)pyrrolidin-3-yl) 7H-pyrrolo[2,3-d]pyrimidine-5-carboxamide]			1.44	37.1	>2675.9
CCN(CC)C/C=C/C(=O)N1CC[C@@H](n2nc(C(=O)Nc3nc4cc(Cl)ccc4o3)c3c(N)ncnc32)C1 [Example 34, (R,E)-4-amino-N-(5-chlorobenzo[d]oxazol-2-yl)-1-(1-(4-(diethylamino)but-2-enoyl)pyrrolidin-3-yl)-1H-pyrazolo[3,4-d]pyrimidine-3-carboxamide]			0.79	79.3	>22471.9
